Values of other authors, collected in patent US20200138792A1, “PHARMACEUTICAL COMBINATIONS OF ZONISAMIDE AND PRAMIPEXOLE, AND RELATED METHODS, FOR TREATING SYNUCLEINOPATHIES” (CHASE THERAPEUTICS CORPORATION, priority 2017, published 2020).

Key:
[1] = target: human wild-type alpha-synuclein (Homo sapiens, UniProt P37840); conditions: hydrogen peroxide plus cytochrome c
[2] = 5 mg/day of pramipexole
alpha-synuclein = alpha-synuclein (Homo sapiens, UniProt P37840)
[3] = tested on: human neuroblastoma SH-SY5Y cells
A53T α-synuclein = target: T1, A53T α-synuclein (Homo sapiens, UniProt P37840, A53T); conditions: 40 mg/kg/day oral
T1 construct: host or cells: rat brain in vivo, transduced with a viral vector

[4] = tested on: nigral TH-positive neurons; conditions: 20 mg/kg, MPTP-treated mice
nigral dopamine neurons = conditions: 30 mg/kg injection, 6-OHDA mice
[5] = 25 mg-50 mg, alone or with levodopa
[6] = tested on: nigrostriatal dopaminergic neurons; conditions: chronic administration

| SMILES | in vitro oligomerization of human wild-type alpha-synuclein [1] | nausea, patients affected [2] | vomiting, patients affected [2] | patients not able to complete the study ([2]; presumably intolerable GI adverse events) | in vitro oligomerization and aggregation of alpha-synuclein (alpha-synuclein) | toxic effects of rotenone on dopaminergic neurons (dopaminergic neurons; mouse PD model) | immunoreactivity for alpha-synuclein (dopaminergic neurons; rotenone mouse PD model) | aggregation of alpha-synuclein [3] | survival of nigrostriatal dopamine neurons (A53T α-synuclein) | pace of degeneration vs control group (A53T α-synuclein; four weeks after injection of viral vector for A53T α-synuclein gene) | loss of nigral TH-positive neurons [4] | striatal dopamine depletion [4] | loss of nigral dopamine neurons (nigral dopamine neurons) | motor symptoms in patients with PD [5] | brain-derived neurotrophic factor content in striatum and ventral midbrain vs saline [6] | survival of nigrostriatal dopaminergic neurons, striatal dopaminergic terminals and motor function vs saline [6] |
| --- | --- | --- | --- | --- | --- | --- | --- | --- | --- | --- | --- | --- | --- | --- | --- | --- |
| CCCN[C@H]1CCc2nc(N)sc2C1 [pramipexole, (S)-6-propylamino-4,5,6,7-tetrahydro-1,3-benzothiazole-2-amine] | decreases | 76% | 39% | 36% | diminishes synuclein oligomer formation | inhibits | reducing | inhibit |  |  |  |  |  |  |  |  |
| NS(=O)(=O)Cc1noc2ccccc12 [zonisamide, 1,2-benzisoxazole-3-methanesulfonamide] |  |  |  |  | inhibits |  |  |  | no impact | significantly delayed | reduced the loss of nigral TH-positive neurons | attenuating the associated striatal dopamine depletion | prevented the loss of nigral dopamine neurons | improve motor symptoms | increased | improved |
